Results on 16 molecules are retold here after US9120812B2, “Pyrimidooxazocine derivatives as mTOR-inhibitors” (SANOFI, priority 2012, dated 2015).

In assay [1] the target is mTOR (human recombinant aa mTOR 1360-2549) (Homo sapiens (Human), UniProt P42345). Nature of the assay: mTOR enzymatic test by TR-FRET (phosphorylation of GFP-4EBP1). Type of assay: biochemical. In outline:
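After a 30 min room-temperature kinase reaction, EDTA (10 mM final) and Tb-labelled phospho-Thr46 antibody (2 nM final) were added and incubated 60 min. Energy transfer from Tb to phosphorylated GFP-4EBP1 was read at 340 nm excitation, emissions 490/520 nm. Values derive from the 520/490 fluorescence ratio.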
For orientation: Time-resolved FRET reads energy transfer from a long-lived donor to a nearby acceptor.

The target of a further assay is PI3Kα (p110α/p85α) (Homo sapiens (Human), UniProt P42336). As to the kind of experiment: PI3Kα enzymatic test by measuring the consumption of ATP. Type of assay: biochemical. In outline:
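ATP consumption read out by KinaseGlo luminescence after a 90 min reaction of 1.7 μg/ml PI3Kα (p110α/p85α) with 2 μM ATP and 50 μM PIP2, buffered at pH 7.5 (Tris, 10 mM MgCl2, 1 mM EGTA, 0.03% Chaps, 1 mM DTT). Threefold dilution series over ≥10 000-fold range yield IC50.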

A further assay relates to U87MG tumour cells. As to the kind of experiment: Test of in vitro proliferation of U87MG tumour cells. It counts as cell-based. The note with it: Homo sapiens, U-87 MG, 72 h, U87MG cells, 72 hours; read-out: U87 Cell Proliferation IC50. The procedure:
Model 4: Test of in vitro Proliferation of U87MG Tumour Cells.
The cell growth is determined with the reagent CellTiter 96 AQueous One Solution Cell Proliferation Assay from Promega (Cat. No. G3581).

The next assay relates to Akt-pS473 in U87MG cells. The note with it: Homo sapiens, U-87 MG, read-out: U87 Akt-pS473 % Inhibition or IC50, nM (IC50), U87MG cells.

mTOR (human recombinant aa mTOR 1360-2549), sequence (P42345 1360-2549): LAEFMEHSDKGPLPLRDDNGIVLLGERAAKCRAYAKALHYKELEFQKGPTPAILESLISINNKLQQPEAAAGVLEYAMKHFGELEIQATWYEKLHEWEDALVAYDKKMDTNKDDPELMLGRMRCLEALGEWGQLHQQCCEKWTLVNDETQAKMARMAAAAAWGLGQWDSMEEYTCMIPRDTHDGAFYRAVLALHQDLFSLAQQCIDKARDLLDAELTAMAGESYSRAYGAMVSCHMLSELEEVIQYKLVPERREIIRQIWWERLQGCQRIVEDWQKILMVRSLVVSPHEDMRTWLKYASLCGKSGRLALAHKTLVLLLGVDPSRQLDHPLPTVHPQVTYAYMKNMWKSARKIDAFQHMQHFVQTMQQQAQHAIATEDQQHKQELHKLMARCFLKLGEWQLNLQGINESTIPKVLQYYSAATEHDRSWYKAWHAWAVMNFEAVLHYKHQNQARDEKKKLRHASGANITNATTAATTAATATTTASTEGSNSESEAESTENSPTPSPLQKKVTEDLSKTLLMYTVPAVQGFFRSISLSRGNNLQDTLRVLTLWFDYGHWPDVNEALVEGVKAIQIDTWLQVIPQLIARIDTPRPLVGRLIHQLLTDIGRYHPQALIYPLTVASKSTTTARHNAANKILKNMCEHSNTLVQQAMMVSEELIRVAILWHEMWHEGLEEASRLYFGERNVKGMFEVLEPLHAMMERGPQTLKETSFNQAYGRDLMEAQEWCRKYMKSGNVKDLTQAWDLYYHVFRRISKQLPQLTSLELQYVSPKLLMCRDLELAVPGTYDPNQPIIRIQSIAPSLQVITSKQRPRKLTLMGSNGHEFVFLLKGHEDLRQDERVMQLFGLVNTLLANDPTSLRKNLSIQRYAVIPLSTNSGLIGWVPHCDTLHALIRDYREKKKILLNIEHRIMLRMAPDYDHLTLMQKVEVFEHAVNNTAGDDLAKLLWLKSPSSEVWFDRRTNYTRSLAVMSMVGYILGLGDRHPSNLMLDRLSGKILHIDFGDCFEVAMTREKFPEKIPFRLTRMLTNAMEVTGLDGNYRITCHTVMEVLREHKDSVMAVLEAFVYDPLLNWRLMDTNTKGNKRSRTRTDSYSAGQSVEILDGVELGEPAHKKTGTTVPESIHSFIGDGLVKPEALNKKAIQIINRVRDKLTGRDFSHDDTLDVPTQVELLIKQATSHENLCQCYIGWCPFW
PI3Kα (p110α/p85α), sequence (P42336 whole entry): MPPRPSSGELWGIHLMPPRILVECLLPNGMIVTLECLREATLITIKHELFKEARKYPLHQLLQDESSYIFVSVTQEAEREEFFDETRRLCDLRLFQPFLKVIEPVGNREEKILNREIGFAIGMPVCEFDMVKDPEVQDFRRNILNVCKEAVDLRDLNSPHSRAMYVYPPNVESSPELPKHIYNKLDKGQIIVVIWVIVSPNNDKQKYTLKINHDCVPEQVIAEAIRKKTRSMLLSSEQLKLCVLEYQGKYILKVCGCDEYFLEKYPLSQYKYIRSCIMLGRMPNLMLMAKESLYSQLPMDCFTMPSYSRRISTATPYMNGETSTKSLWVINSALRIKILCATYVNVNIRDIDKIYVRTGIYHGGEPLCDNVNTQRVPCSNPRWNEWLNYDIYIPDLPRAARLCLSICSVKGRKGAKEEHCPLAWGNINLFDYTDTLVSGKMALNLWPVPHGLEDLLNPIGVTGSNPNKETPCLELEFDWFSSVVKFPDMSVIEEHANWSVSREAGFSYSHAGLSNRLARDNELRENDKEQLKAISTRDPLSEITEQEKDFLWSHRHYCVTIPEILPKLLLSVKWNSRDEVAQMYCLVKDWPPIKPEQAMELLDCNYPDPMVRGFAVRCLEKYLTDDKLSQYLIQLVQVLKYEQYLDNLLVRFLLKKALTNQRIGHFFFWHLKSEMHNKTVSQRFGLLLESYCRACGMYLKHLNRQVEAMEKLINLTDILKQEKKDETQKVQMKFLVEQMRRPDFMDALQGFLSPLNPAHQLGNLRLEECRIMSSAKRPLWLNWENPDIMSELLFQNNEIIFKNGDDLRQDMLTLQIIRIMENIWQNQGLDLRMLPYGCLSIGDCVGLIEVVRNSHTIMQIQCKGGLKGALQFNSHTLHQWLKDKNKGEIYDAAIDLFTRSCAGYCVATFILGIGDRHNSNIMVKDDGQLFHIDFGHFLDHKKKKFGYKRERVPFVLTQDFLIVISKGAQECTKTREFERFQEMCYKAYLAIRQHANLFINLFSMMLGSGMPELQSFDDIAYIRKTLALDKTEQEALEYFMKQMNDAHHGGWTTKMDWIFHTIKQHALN
PI3Kα (p110α/p85α), sequence (P27986 whole entry partner): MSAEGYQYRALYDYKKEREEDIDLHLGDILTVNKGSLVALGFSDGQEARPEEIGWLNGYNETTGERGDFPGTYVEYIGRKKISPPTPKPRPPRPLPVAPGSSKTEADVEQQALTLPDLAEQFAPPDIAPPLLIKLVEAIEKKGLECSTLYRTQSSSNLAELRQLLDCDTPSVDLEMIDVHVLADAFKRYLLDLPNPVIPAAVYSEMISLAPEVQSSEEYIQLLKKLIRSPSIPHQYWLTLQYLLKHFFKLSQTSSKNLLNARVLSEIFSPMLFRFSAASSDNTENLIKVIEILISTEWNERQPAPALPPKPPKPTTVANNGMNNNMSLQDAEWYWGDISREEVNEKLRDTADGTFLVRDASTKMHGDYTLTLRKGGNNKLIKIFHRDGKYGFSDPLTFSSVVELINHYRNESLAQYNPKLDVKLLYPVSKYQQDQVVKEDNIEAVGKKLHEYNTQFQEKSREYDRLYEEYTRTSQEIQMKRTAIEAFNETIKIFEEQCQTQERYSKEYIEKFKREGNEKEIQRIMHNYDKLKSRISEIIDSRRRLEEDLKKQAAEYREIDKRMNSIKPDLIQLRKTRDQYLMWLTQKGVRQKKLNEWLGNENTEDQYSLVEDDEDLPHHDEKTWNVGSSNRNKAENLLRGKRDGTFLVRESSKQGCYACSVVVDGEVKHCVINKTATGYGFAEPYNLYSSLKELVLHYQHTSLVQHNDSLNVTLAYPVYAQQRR

For the molecule `C[C@@H]1COCCN1c1ccc(NC(=O)Nc2ccc(-c3nc(N4CC5CCC(C4)O5)nc4c3C(=O)N(C)CC(C)(C)O4)cc2F)cn1` [Example 87, 1-{2-Fluoro-4-[6,8,8-trimethyl-2-(8-oxa-3-azabicyclo[3.2.1]oct-3-yl)-5-oxo-5,6,7,8-tetrahydro-9-oxa-1,3,6-triazabenzocyclohepten-4-yl]phenyl}-3-[6-((R)-3-methylmorpholin-4-yl)pyridin-3-yl]urea], the IC50 in assay [1] was 0.057 µM; with U87MG tumour cells, 0.059 µM; in the assay with Akt-pS473 in U87MG cells, 20 nM. The “PI3Ka IC50” value on PI3Kα (p110α/p85α) was above 10 µM.

In the case of `CCN1CC(C)(C)Oc2nc(N3CCOC[C@@H]3C)nc(-c3ccc(NC(=O)OCC(C)(C)O)cc3)c2C1=O` [Example 214, {4-[6-Ethyl-8,8-dimethyl-2-((S)-3-methylmorpholin-4-yl)-5-oxo-5,6,7,8-tetrahydro-9-oxa-1,3,6-triazabenzocyclohepten-4-yl]phenyl}carbamic acid 2-hydroxy-2-methylpropyl ester], the results for the IC50 (in assay [1]; in the assay with U87MG tumour cells; in the assay on Akt-pS473 in U87MG cells) were 2.45 µM, above 10 µM and above 1000 nM, respectively. Besides, the “PI3Ka IC50” value on PI3Kα (p110α/p85α) is above 10 µM.

Consider `CCN1CC(C)(C)Oc2nc(N3CCOC[C@@H]3C)nc(-c3ccc(NC(=O)Nc4ccon4)c(C)c3)c2C1=O` [Example 26, 1-{4-[6-ethyl-8,8-dimethyl-2-((S)-3-methylmorpholin-4-yl)-5-oxo-5,6,7,8-tetrahydro-9-oxa-1,3,6-triazabenzocyclohepten-4-yl]-2-methylphenyl}-3-isoxazol-3-ylurea], for which the IC50 is 0.112 µM in assay [1], 3.57 µM in the assay on U87MG tumour cells and above 1000 nM in the assay with Akt-pS473 in U87MG cells. Moreover, the “PI3Ka IC50” value on PI3Kα (p110α/p85α) stood at 3.86 µM.

As for `COCCN1CC(C)(C)Oc2nc(N3CCOC[C@@H]3C)nc(-c3ccc(NC(=O)Nc4ccc(F)cc4F)cc3)c2C1=O` [Example 188, 1-(2,4-Difluorophenyl)-3-{4-[6-(2-methoxyethyl)-8,8-dimethyl-2-((S)-3-methylmorpholin-4-yl)-5-oxo-5,6,7,8-tetrahydro-9-oxa-1,3,6-triazabenzocyclohepten-4-yl]phenyl}urea], the IC50 in assay [1] came out at 0.063 µM; in the assay with U87MG tumour cells it was 0.505 µM; with Akt-pS473 in U87MG cells, 45 nM. Besides, the “PI3Ka IC50” value on PI3Kα (p110α/p85α) amounted to 2.33 µM.

In the case of `CCN1CC(C)(C)Oc2nc(N3CCOC[C@@H]3C)nc(-c3ccc(NC(=O)Nc4cccc(OC(F)F)c4)cc3)c2C1=O` [Example 204, 1-(3-Difluoromethoxyphenyl)-3-{4-[6-ethyl-8,8-dimethyl-2-((S)-3-methylmorpholin-4-yl)-5-oxo-5,6,7,8-tetrahydro-9-oxa-1,3,6-triazabenzocyclohepten-4-yl]phenyl}urea], the values for the IC50 (in assay [1]; with U87MG tumour cells; with Akt-pS473 in U87MG cells) were 0.061 µM, 0.074 µM and 18 nM, respectively. The “PI3Ka IC50” value at PI3Kα (p110α/p85α) stood at 0.468 µM.

Consider `CCN1CC(C)(C)Oc2nc(N3CC4CCC(C3)O4)nc(-c3ccc(NC(=O)Nc4ccnc(N(C)C)c4)c(F)c3)c2C1=O` [Example 78, 1-(2-Dimethylaminopyridin-4-yl)-3-{4-[6-ethyl-8,8-dimethyl-2-(8-oxa-3-azabicyclo[3.2.1]oct-3-yl)-5-oxo-5,6,7,8-tetrahydro-9-oxa-1,3,6-triazabenzocyclohepten-4-yl]-2-fluorophenyl}urea], for which the values for the IC50 (in assay [1]; with U87MG tumour cells; with Akt-pS473 in U87MG cells) were 0.09 µM, 0.083 µM and 28 nM, respectively. Also, the “PI3Ka IC50” value at PI3Kα (p110α/p85α) amounted to 6.26 µM.

Consider `CCN1CC(C)(C)Oc2nc(N3CC4CCC(C3)O4)nc(-c3ccc(NC(=O)Nc4cnc(OC)cn4)cc3)c2C1=O` [Example 198, 1-{4-[6-Ethyl-8,8-dimethyl-2-(8-oxa-3-azabicyclo[3.2.1]oct-3-yl)-5-oxo-5,6,7,8-tetrahydro-9-oxa-1,3,6-triazabenzocyclohepten-4-yl]phenyl}-3-(5-methoxypyrazin-2-yl)urea], for which the values for the IC50 (in assay [1]; in the assay with U87MG tumour cells; in the assay on Akt-pS473 in U87MG cells) were 0.057 µM, 0.318 µM and 44 nM, respectively. Moreover, the “PI3Ka IC50” value on PI3Kα (p110α/p85α) was above 10 µM.

`CCN1CC(C)(C)Oc2nc(N3CC4CCC(C3)O4)nc(-c3ccc(NC(=O)Nc4ccnc(OC)n4)c(F)c3)c2C1=O` [Example 144, 1-{4-[6-Ethyl-8,8-dimethyl-2-(8-oxa-3-azabicyclo[3.2.1]oct-3-yl)-5-oxo-5,6,7,8-tetrahydro-9-oxa-1,3,6-triazabenzocyclohepten-4-yl]-2-fluorophenyl}-3-(2-methoxypyrimidin-4-yl)urea]: the IC50 in assay [1] is 0.105 µM; in the assay on U87MG tumour cells it was 2.57 µM; in the assay with Akt-pS473 in U87MG cells, 142 nM. The “PI3Ka IC50” value at PI3Kα (p110α/p85α) is above 10 µM.

As for `CN1CC(C)(C)Oc2nc(N3C4CCC3COC4)nc(-c3ccc(NC(=O)Nc4ccncc4)c(F)c3)c2C1=O` [Example 82, 1-{2-Fluoro-4-[6,8,8-trimethyl-2-(3-oxa-8-azabicyclo[3.2.1]oct-8-yl)-5-oxo-5,6,7,8-tetrahydro-9-oxa-1,3,6-triazabenzocyclohepten-4-yl]phenyl}-3-pyridin-4-ylurea], the results for the IC50 (in assay [1]; in the assay with U87MG tumour cells; with Akt-pS473 in U87MG cells) were 0.021 µM, 0.029 µM and 13 nM, respectively. Further, the “PI3Ka IC50” value at PI3Kα (p110α/p85α) worked out at 2.24 µM.

Consider `CCN1CC(C)(C)Oc2nc(N3CC4CCC(C3)O4)nc(-c3ccc(NC(=O)Nc4ccc(N5CCCC5)nc4)c(F)c3)c2C1=O` [Example 32, 1-{4-[6-Ethyl-8,8-dimethyl-2-(8-oxa-3-azabicyclo[3.2.1]oct-3-yl)-5-oxo-5,6,7,8-tetrahydro-9-oxa-1,3,6-triazabenzocyclohepten-4-yl]-2-fluorophenyl}-3-(6-pyrrolidin-1-ylpyridin-3-yl)urea], for which the IC50 in assay [1] came out at 0.084 µM; in the assay on U87MG tumour cells it was 0.115 µM; in the assay on Akt-pS473 in U87MG cells, 21 nM. Further, at PI3Kα (p110α/p85α), the “PI3Ka IC50” value is above 10 µM.

As for `CCN1CC(C)(C)Oc2nc(N3CC4CCC(C3)O4)nc(-c3ccc(NC(=O)Nc4ccc(F)cc4F)cc3)c2C1=O` [Example 19, 1-(2,4-difluorophenyl)-3-{4-[6-ethyl-8,8-dimethyl-2-(8-oxa-3-azabicyclo[3.2.1]oct-3-yl)-5-oxo-5,6,7,8-tetrahydro-9-oxa-1,3,6-triazabenzocyclohepten-4-yl]phenyl}urea], the IC50 in assay [1] came out at 0.032 µM; with U87MG tumour cells, 0.122 µM; in the assay on Akt-pS473 in U87MG cells it was 28 nM. Further, on PI3Kα (p110α/p85α), the “PI3Ka IC50” value came to 6.219 µM.

Regarding `COc1ccc(NC(=O)Nc2ccc(-c3nc(N4CC5CCC(C4)O5)nc4c3C(=O)N(C3CCOCC3)CC(C)(C)O4)cc2)cn1` [Example 148, 1-{4-[8,8-Dimethyl-2-(8-oxa-3-azabicyclo[3.2.1]oct-3-yl)-5-oxo-6-(tetrahydropyran-4-yl)-5,6,7,8-tetrahydro-9-oxa-1,3,6-triazabenzocyclohepten-4-yl]phenyl}-3-(6-methoxypyridin-3-yl)urea], the values for the IC50 (in assay [1]; in the assay on U87MG tumour cells; with Akt-pS473 in U87MG cells) were 0.068 µM, 0.49 µM and 21 nM, respectively. For the same molecule, the “PI3Ka IC50” value on PI3Kα (p110α/p85α) was above 10 µM.

As to `CCN1CC(C)(C)Oc2nc(N3CC4CCC(C3)O4)nc(-c3ccc(NC(=O)NC)c(F)c3)c2C1=O` [Example 1, 1-{4-[6-Ethyl-8,8-dimethyl-2-(8-oxa-3-azabicyclo[3.2.1]oct-3-yl)-5-oxo-5,6,7,8-tetrahydro-9-oxa-1,3,6-triazabenzocyclohepten-4-yl]-2-fluorophenyl}-3-methylurea], the results for the IC50 (in assay [1]; with U87MG tumour cells; in the assay with Akt-pS473 in U87MG cells) were 0.023 µM, 0.197 µM and 55 nM, respectively. Besides, the “PI3Ka IC50” value at PI3Kα (p110α/p85α) was 8.841 µM.

Consider `CCN1CC(C)(C)Oc2nc(N3CC4CCC(C3)O4)nc(-c3ccc(NC(=O)Nc4ccc(N5CCC(O)C5)cn4)cc3)c2C1=O` (stereo not shown) [Example 72, 1-{4-[6-Ethyl-8,8-dimethyl-2-(8-oxa-3-azabicyclo[3.2.1]oct-3-yl)-5-oxo-5,6,7,8-tetrahydro-9-oxa-1,3,6-triazabenzocyclohepten-4-yl]phenyl}-3-[5-(3-hydroxypyrrolidin-1-yl)pyridin-2-yl]urea], for which the IC50 amounted to 0.023 µM in assay [1], 0.498 µM in the assay with U87MG tumour cells and 58 nM in the assay with Akt-pS473 in U87MG cells. The “PI3Ka IC50” value at PI3Kα (p110α/p85α) was above 10 µM.

On to `CCN1CC(C)(C)Oc2nc(N3CC4CCC(C3)O4)nc(-c3ccc(NC(=O)Nc4ccc(N5CCOCC5)cn4)cc3)c2C1=O` [Example 250, 1-{4-[6-Ethyl-8,8-dimethyl-2-(8-oxa-3-azabicyclo[3.2.1]oct-3-yl)-5-oxo-5,6,7,8-tetrahydro-9-oxa-1,3,6-triazabenzocyclohepten-4-yl]phenyl}-3-(5-morpholin-4-ylpyridin-2-yl)urea], for which the IC50 in assay [1] came to 0.036 µM; in the assay on U87MG tumour cells, 0.1 µM; with Akt-pS473 in U87MG cells it was 38 nM. For the same molecule, the “PI3Ka IC50” value at PI3Kα (p110α/p85α) was above 10 µM.

Consider `CCN1CC(C)(C)Oc2nc(N3CC4CCC(C3)O4)nc(-c3ccc(NC(=O)Nc4ccc(F)c(OC)c4)c(F)c3)c2C1=O` [Example 138, 1-{4-[6-Ethyl-8,8-dimethyl-2-(8-oxa-3-azabicyclo[3.2.1]oct-3-yl)-5-oxo-5,6,7,8-tetrahydro-9-oxa-1,3,6-triazabenzocyclohepten-4-yl]-2-fluorophenyl}-3-(4-fluoro-3-methoxyphenyl)urea], for which the IC50 in assay [1] was found to be 0.299 µM; in the assay with U87MG tumour cells, 0.331 µM; in the assay on Akt-pS473 in U87MG cells it was 105 nM. Further, the “PI3Ka IC50” value at PI3Kα (p110α/p85α) was above 10 µM.
